The source of these data is patent US20090196829A1, “MRI CONTRAST AGENTS AND RELATED METHODS OF USE” (Northwestern University, priority 2008, published 2009).

Values joined by “and” are separate entries in the source; they are usually repeats but may differ in a detail not shown here. Equal values may be shown once.

For data set [1] the following is noted: at 64 MHz; cited from earlier work.
Data set [2] relates to NIH-3T3 cells. Briefly: T1 measurement from T1 weighted cell pellet images of labeled cells. In kind it is cell-based, mouse. Particulars: NIH-3T3 cell pellets, 4 hours incubation. As to the method: In experiments conducted during the course of development of the present invention, 5 and 6 were used to label cells for MR imaging at equal molar concentrations of Gd(III) (FIG. 2B). […] NIH-3T3 cells were incubated for 4 hours at 37° C. and 5% CO2 in complete media containing 5, 6, and Gd-DOTA. The cells were rinsed 3 times in phosphate buffered saline and pelleted in 1 mm capillary tubes. Unlabeled cell pellets were used as a control. T1 values measured for 5, 6, Gd-DOTA and the control cell pellet were 2067.7, 2178.4, 3009.4, and 3480.3 msec respectively. […] Cell studies were done using NIH-3T3 cells cultured in Dulbecco's Modified Eagle's Media supplemented in 10% calf bovine serum and incubated at 37° C., 5% CO2. Cells were incubated with approximately equimolar concentrations of Gd for 4 hours in a 6 well plate. The cells were rinsed 2× with PBS and trypsinized. In 1.5 mL tubes, the cells were fixed for 15 min in 10% buffered neutral formalin and rinsed 2× in PBS. The cells were then pelleted in flame sealed 1 mm capillary tubes. T1 weighted (TR/TE=800/18.3 ms) spin-echo images were acquired at 200 MHz. T1 measurements were obtained by collecting a series of images using a standard spin-echo sequence with a TE of […] and a series of TR (91.5, 200, 300, 400, 500, 750, 1200, 2500, 5000, 10000), 6 signal averages, FOV 2×2 cm, collected into a matrix of 256×128.

The nature of data set [3]: T1 measurement and relaxivity of agents in solution, MR phantoms at 4.7T, 200 MHz. In kind it is physicochemical. Conditions: nanopure water, per Gd. How it is done: In experiments conducted during the course of development of the present invention, MR phantoms were imaged using a 4.7T, 200 MHz Bruker Biospec MR Imager with decreasing concentrations of 5, 6 and Gd-DOTA as indicated in FIG. 2A. T1 measurements were obtained and relaxivities were calculated for each compound using the T1 data. Relaxivities for 5, 6 and Gd-DOTA were calculated to be 5.3, 5.1, and 1.0 mM^−1 s^−1 at 200 MHz respectively. At high magnetic field strengths there remained a 5 fold increase in relaxivity per Gd(III) which indicated a 31-37 fold increase in molecular relaxivity.
6, 5 and DOTA-Gd were dissolved in nanopure water at decreasing concentrations and imaged in 1 mm capillary tubes. Concentrations (μM) were as follows from left to right for 6 (73.3, 54.9, 36.6, 22.0, 11.0, 0.0) for 5 (82.1, 61.6, 41.0, 24.6, 12.3, 0.0) and for DOTA-Gd (82.7, 62.0, 41.4, 24.8, 12.4, 0.0). T1 weighted (TR/TE=300/18.3 ms) spin-echo images were acquired at 200 MHz. […]
T1 values were determined using the following equation.
Where SI is the measured signal intensity for each TR, S0 is the signal intensity at infinity.
Relaxivities for each compound were calculated using the T1 data and gadolinium concentrations as determined by ICP-MS analysis. […]

As to `CNC[C@H](O)[C@@H](O)[C@H](O)[C@H](O)CO.O=C([O-])CN1CCN(CC(=O)[O-])CCN(CC(=O)O)CCN(CC(=O)[O-])CC1.[Gd+3]` [Dotarem], the relaxivity in data set [1] is 3.4 mM⁻¹ s⁻¹.
As for `O=C([O-])CN1CCN(CC(=O)[O-])CCN(CC(=O)O)CCN(CC(=O)[O-])CC1.[Gd+3]` [Gd-DOTA], in data set [2] (approximately equimolar Gd(III) (7.80, 8.95, 9.00 mM Gd), 200 MHz), the T1 is 3009.4 ms and 3009.44 ms. In data set [2] (vs unlabeled control pellet), the “% difference from control (T1)” value came to 13.53%. Further, in data set [3], the “Relaxivity (linear regression of 1/T1 vs. Gd concentration)” value was determined as 1.0 mM⁻¹ s⁻¹.
